Each structure is given as a SMILES string.

These results are taken from patent publication US20150258197A1, “EUTECTIC ISOMETHEPTENE MUCATE” (TONIX PHARMA HOLDINGS LIMITED, priority 2014, published 2015).

The test system of test [1] is Spontaneous trigeminal allodynia (STA) rats. As to the kind of experiment: Tactile sensory testing with von Frey monofilaments in STA rats. The class given is in vivo, rat. As to conditions: injected, versus (S)-isometheptene mucate treated or control rats. An excerpt:
Pain, headaches, and migraines have been modeled in animals such as mice and rats. For example, Oshinsky et al. (Oshinsky, M. L., et al., Spontaneous Trigeminal Allodynia in Rats: A Model of Primary Headache, 2012, 52: 1336-1349) describes spontaneous trigeminal allodynia (STA) rats with the inherited trait of spontaneously changing trigeminal von Frey thresholds. These rats are a model of spontaneous headache and can be used as a model of primary headache. Through a series of tactile sensory tests, the periorbital, hind-paw, and jaw-pressure thresholds for STA rats are determined by applying von Frey monofilaments. […] Analgesic activity of the compositions described herein can be evaluated by determining trigeminal von Frey thresholds in STA rats. […]
STA rats and litter mates without the trait were injected with compounds selected from (R)-isometheptene mucate and (5)-isometheptene mucate on days when their thresholds in spontaneous allodynia rats were 4 g or below for STA rats. […] Tactile sensory thresholds were recorded prior to and following injections at 0.5 hours, 1.5 hours, 2.5 hours, 3.5 hours, and 24 hours. […]
Periorbital, hind-paw, and jaw-pressure thresholds were determined by applying von Frey monofilaments (Stoelting Co., Wood Dale, Ill., USA). […] Left and right threshold data were recorded separately. […]

For test [2], the system named is mice. Kind of test: Formalin Test, late phase (licking score). The class given is in vivo. As to conditions: mouse, 5% formalin intraplantar, three doses p.o. 15 minutes before the test, 15-50 min after formalin. The text has this:
(§1) Common mouse models for pain include the Formalin Test (Wheeler-Aceto, et al., Psychopharmacology, 104, 35-44, 1991), the Hot Plate Test (Eddy and Leimbach, J. Pharmacol. Exp. Ther., 107, 385-393, 1953), and the Tail-flick Test (D'Amour and Smith, J. Pharmacol. Exp. Ther., 1, 74-79, 1941). These methods detect analgesic activity of compositions of interest. In the Formalin Test, mice are given an intraplantar injection of 5% formalin into one posterior hindpaw to induce paw licking. Test compositions are given to the mice before treatment with formalin and the mice are evaluated and compared to a control group. In the Hot Plate Test, mice are placed onto a hot metal plate maintained at 54° C. and the latency to the first foot-lick is measured. As with the Formalin test, compositions of interest are given to the mice before the test and the mice are evaluated and compared to a control group. In the Tail-flick Test, a mouse's tail is heated by means of a thermal light source, and the latency before the animal withdraws its tail is measured. […]
Mice were given an intraplantar injection of 5% formalin (25 μL) into one posterior hindpaw. […] Mice were briefly observed at one minute intervals between 15 and 50 minutes after the injection of formalin and the number of occasions that the mice were observed licking the injected paw was recorded. […]

Test [3] has as its system mice. Kind of test: Hot Plate Test. The class given is in vivo. As to conditions: mouse, hot plate 54° C., 10, 30 and 100 mg/kg p.o. 15 minutes before the test.
Description: as §1
Mice were placed onto a hot metal plate maintained at 54° C. surrounded by a Plexiglas cylinder (height: 13 cm; diameter: 19 cm). The latency to the first foot-lick was measured (maximum: 30 seconds). […]
Data with the test substance were analyzed by comparing treated groups with vehicle control using ANOVA followed by post-hoc Dunnett's tests. […]
Background: In hot-plate and tail-flick tests a longer latency is read as antinociception.

In the case of `CN[C@H](C)CCC=C(C)C` [(R)-isometheptene mucate], the “Tactile sensory (von Frey) threshold values” in test [1] is on record as “dramatic increase in threshold values”. Moreover, in the test with mice [2], the “Licking score compared to vehicle” value was “reduction in licking score”. In the test with mice [3], the “Foot-licking latency compared to vehicle” value is on record as “longer foot-licking latency times”.
